# Source: PubChem BioAssay AID489023 (Sanford-Burnham Center for Chemical Genomics, 2010)
# The source made the active and inactive calls. The rule behind the calls is not given here.
# System: 697B cells, BCR-induced NF-kB luciferase reporter luminescence
# Assay: inhibitors of BCR-induced NF-kB activation, dose response, 697B cells, luciferase luminescence (AID 489023)
row,SMILES,IC50
1,CCOc1ccc(-c2nc(CSCC(=O)NCc3ccco3)c(C)o2)cc1,0.32 µM
2,CCN1C(=O)c2cccc3c(S(=O)(=O)Nc4ccccn4)ccc1c23,25.2 µM (inactive)
3,COc1ccc(NC(=O)c2nnn(Cc3cccc(F)c3)c2N)c(OC)c1,> 80 µM (inactive)
4,O=C(CCCN1C(=O)/C(=C/c2ccccc2Cl)SC1=S)NNC(=O)c1ccccc1,12.5 µM
5,CCOc1ccc(/C=C2\SC(=S)N(CCCC(=O)NCCCN3CCOCC3)C2=O)cc1,0.43 µM
6,CCOc1cc(/C=N\Nc2nc(Nc3ccccc3)nc(N3CCOCC3)n2)ccc1OC(=O)c1ccco1,1.25 µM
7,CCc1cccc(NC(=O)c2ccc(CNc3c(N4CCCC4)c(=O)c3=O)cc2)c1,> 80 µM (inactive)
8,CC1CCC/C=C/C2CC(O)CC2C(O)/C=C/C(=O)O1 (configuration not stated),> 80 µM (inactive)
9,CCn1c(=O)cc(OCC(=O)N(C)C2CCCCC2)c2ccccc21,> 80 µM (inactive)
10,CCCS(=O)(=O)Nc1cccc(-c2ccc3nnc(C)n3n2)c1,> 80 µM (inactive)
11,Cc1ccccc1-c1cc(C(=O)Nc2sc(C(=O)OC(C)C)c(C)c2C#N)c2ccccc2n1,42.8 µM (inactive)
12,O=C(CCCN1C(=O)/C(=C/c2ccccc2Cl)SC1=S)Nc1cccnc1,1.75 µM
13,Cc1nc2cc(-c3ccccc3)nn2c(C)c1CCC(=O)NCc1ccco1,> 80 µM (inactive)
14,Cn1c(=O)c2c(SCC(=O)Nc3ccccc3F)nc(-c3ccccc3F)nc2n(C)c1=O,21.8 µM (inactive)
15,COc1ccc(/C=C2/SC(=S)N(CCCC(=O)Nc3ccc(O)cc3)C2=O)cc1,0.44 µM
16,CCN(CC(=O)Nc1c(F)cccc1F)C(=O)c1cc(S(=O)(=O)N(CC)CC)ccc1N1CCCCC1,4.04 µM
17,C=C1C(=O)[C@@]23C[C@H]4[C@@H]5[C@@]6(C)CCC[C@@]57[C@@H]2[C@@H](O)[C@@H]1C[C@H]3[C@H]7N4C6,2.89 µM
18,COc1ccc(C2=NCc3nnc(C)n3-c3ccc(Cl)cc32)cc1Cl,43.6 µM (inactive)
19,Cc1nc(Nc2c(Cl)cccc2Cl)sc1C(=O)Nc1ccccc1,50.1 µM (inactive)
20,Cc1nc2cc(-c3cccc(F)c3)nn2c(C)c1CCC(=O)NC(C)CCc1ccco1 (configuration not stated),13.8 µM
21,COc1ccc(/C=C/c2ccccc2)cc1[C@H]1[C@H]2C=CC[C@@H](C)[C@@H]2C(=O)N1Cc1ccccc1,> 80 µM (inactive)
22,C(=N\Nc1nc(Nc2ccccc2)nc(N2CCOCC2)n1)/c1c[nH]c2ccccc12,< 0.16 µM
23,CCC(=O)N(C1=C(NC)C(=O)c2ccccc2C1=O)C(C)C,> 80 µM (inactive)
24,CCN1CCN(C(=O)CSc2cc(=O)n(CC)c3ccccc23)CC1,> 80 µM (inactive)
25,Cc1cnc(NC(=O)Nc2ccc(Cl)cc2)s1,> 80 µM (inactive)

row,SMILES,IC50
1,Cc1ccc(C(=O)NNC(=O)CCCN2C(=O)/C(=C/c3ccccc3Cl)SC2=S)cc1,22 µM (inactive)
2,N=c1c(C(=O)NC2CCCC2)cc2c(=O)n3ccccc3nc2n1CCN1CCOCC1,> 80 µM (inactive)
3,O=C(CCCc1nc(-c2ccccc2Cl)no1)NC1CCCC1,1.25 µM
4,CCn1c(=O)cc(SCC(=O)N2CCOCC2)c2ccccc21,> 80 µM (inactive)
5,COc1ccc(-c2noc(N3CCC(C(=O)Nc4ccc(F)cc4F)CC3)n2)cc1,> 80 µM (inactive)
6,CN(C)c1cc[n+](Cc2c(Cl)cccc2Cl)cc1,> 80 µM (inactive)
7,CC(=O)C1=NN(c2ccccc2)C(c2cccs2)N1c1ccc(N(C)C)cc1 (configuration not stated),31.7 µM (inactive)
8,Cc1ccc(S(=O)(=O)Nc2ccc3c(c2)n(C)c(=O)n3C)cc1,> 80 µM (inactive)
9,CC(C)(C)c1ccc(-c2noc(CCC(=O)NCc3ccco3)n2)cc1,< 0.16 µM
10,CCSc1ncc(Cl)c(C(=O)Nc2sc3c(c2C(=O)NCc2cccnc2)CCCC3)n1,> 80 µM (inactive)
11,Cc1ccc(C2(c3ccc(C)cc3)CC2C(=O)Nc2ccc([N+](=O)[O-])cc2O)cc1 (configuration not stated),73.4 µM (inactive)
12,COc1ccc(/C=C2/SC(=S)N(CCC(=O)O)C2=O)cc1,2.46 µM
13,O=C(NNC(=O)c1ccccc1O)c1ccc(Cl)c(S(=O)(=O)N2CCc3ccccc32)c1,> 80 µM (inactive)
14,CCN(CC)CCCN=Cc1c(-c2ccccc2)[nH]n(-c2nc3ccccc3s2)c1=O,17.9 µM
15,Cc1ccc(C(=O)N2CCCC(c3ccc(Cl)cc3)=N2)cc1,> 80 µM (inactive)
16,Cc1ccc(-c2nn3c(C)nnc3c3ccccc23)cc1S(=O)(=O)N1CCN(CCO)CC1,26.5 µM (inactive)
17,Cc1c(CCO)c(=O)oc2n[nH]c(-c3ccccc3)c12,13.8 µM
18,CC(C)OCCCNC(=O)c1c(N)n(/N=C/c2ccccn2)c2nc3ccccc3nc12,> 80 µM (inactive)
19,Cc1ccoc1C(=O)Nc1ccc(CC(=O)O)cc1,2.09 µM
20,Cc1ccc(NC(=O)C2CCC(CNc3c(N4CCC(C)CC4)c(=O)c3=O)CC2)cc1F (configuration not stated),> 80 µM (inactive)
21,COc1ccc(OC)c(S(=O)(=O)Nc2ccc(-c3ccc4nnc(C)n4n3)cc2)c1,> 80 µM (inactive)
22,O=C(Nc1ccccc1C(=O)Nc1nnc(C(F)(F)F)s1)c1ccccc1,> 80 µM (inactive)
23,C=CCOc1ccccc1CN(C(=O)CCl)c1ccc2c(c1)OCO2,0.72 µM
24,COc1ccc(-c2noc(CCCC(=O)O)n2)cc1,2.14 µM
25,O=C(CCl)N(c1ccc(Cl)cc1)c1c[nH]c2ccccc12,0.27 µM

row,SMILES,IC50
1,Cc1c(NC(=O)/C=C/c2cn(-c3ccccc3)nc2-c2ccccc2)c(=O)n(-c2ccccc2)n1C,> 80 µM (inactive)
2,C/C=C(/C)C(=O)OC1Cc2c(ccc3ccc(=O)oc23)OC1(C)C (configuration not stated),> 80 µM (inactive)
3,CCCCCOc1ccc(NC(=O)C(=O)NCCCn2ccnc2)cc1,4.78 µM
4,CCc1sc(C(=O)Nc2cccc(-n3cnnn3)c2)cc1C,> 80 µM (inactive)
5,OCCN1CCN(C(=S)c2ccc(-c3ccccc3)cc2)CC1,5.72 µM
6,N=c1c2c(n(Cc3ccc(Cl)c(Cl)c3)c3c1CCC3)CCCC2,31.1 µM (inactive)
7,CCOC(=O)c1nn(-c2ccccc2)c(C#N)c1NC(=O)c1nn(CC)cc1Br,> 80 µM (inactive)
8,O=C(CCl)N1CCN(S(=O)(=O)c2ccc3c(c2)CCC3)CC1,5.72 µM
9,CN1C(=O)CC(c2ccco2)Sc2ccccc21 (configuration not stated),> 80 µM (inactive)
10,COc1ccc(-c2ccc(N(C)C)cc2)cc1[C@H]1[C@H]2C=CC[C@@H](C)[C@@H]2C(=O)N1Cc1ccccc1,> 80 µM (inactive)
11,COCCNC(=O)CSCc1nc(-c2ccc(SC)cc2)oc1C,4.56 µM
12,COc1ccc(OC)c(C2CC(=O)Nc3cc(OC)c(OC)c(OC)c32)c1 (configuration not stated),> 80 µM (inactive)
13,Cc1ccc(/C=C2\SC(=S)N(CCCC(=O)Nc3ccccn3)C2=O)cc1,0.37 µM
14,CCN(CC)CCOC(=O)c1ccc(NC(=O)COc2cc(=O)n(CC)c3ccccc23)cc1,> 80 µM (inactive)
15,CCOc1ccc(/C=C2\SC(=S)N(CCC(=O)Nc3ccc(C(=O)O)cc3)C2=O)cc1,1.35 µM
16,CCN(CC)C(=O)c1ccc(S(=O)(=O)Cc2ccc(C)cc2)c([N+](=O)[O-])c1,3.55 µM
17,CC(C)c1[nH]nc2c1C(c1ccco1)C(C#N)=C(N)O2 (configuration not stated),> 80 µM (inactive)
18,CNC(=O)c1cc(Nc2nnc(-c3ccc(O)cc3)c3ccccc23)ccc1OC,> 80 µM (inactive)
19,CCOC(=O)c1cc2c(=O)n3ccccc3nc2n(CC(C)C)c1=NC(=O)c1c(-c2c(F)cccc2Cl)noc1C,> 80 µM (inactive)
20,COc1ccc(C(=O)Nc2ccc(OC)c([N+](=O)[O-])c2)cc1Br,> 80 µM (inactive)
21,CC(=O)c1cn(CCOc2cc(C)ccc2C)c2ccccc12,> 80 µM (inactive)
22,Cc1cc(OCC(=O)NC2CC2)c2c(C)c(C)c(=O)oc2c1,> 80 µM (inactive)
23,CC(C)(C)c1ccc(-c2cc(N)n[nH]2)cc1,15.6 µM
24,CC1Cc2ccccc2N1S(=O)(=O)c1cnc(Cl)c(Cl)c1 (configuration not stated),> 80 µM (inactive)
25,COc1ccc(C(=O)Nc2nnc(Cc3cccs3)s2)cc1OC,> 80 µM (inactive)

row,SMILES,IC50
1,CCCC(=O)Nc1ccc(Sc2ccc([N+](=O)[O-])cc2)cc1,69.3 µM (inactive)
2,CC(C)(C)c1ccc(-n2ncc3c2CCCC3NC(=O)C2(C(N)=O)CC2)cc1 (configuration not stated),> 80 µM (inactive)
3,Cn1c(=O)n(C)c2cc(NC(=O)CSc3nnc(-c4ccccc4O)n3-c3ccccc3)ccc21,> 80 µM (inactive)
4,Cc1ccc(-c2nn3c(C)nnc3c3ccccc23)cc1S(=O)(=O)NCc1ccco1,29.3 µM (inactive)
5,COc1ccccc1/C=C1\SC(=S)N(CCC(=O)Nc2cc(C)on2)C1=O,36.8 µM (inactive)
6,O=S(=O)(c1cnc(Cl)c(Cl)c1)N1CCCc2ccccc21,33.8 µM (inactive)
7,CCOc1ccc(-c2nnc(SCC(=O)Nc3cc(C)on3)o2)cc1,12 µM
8,Cc1ccc(/C=C2\SC(=S)N(CCCC(=O)Nc3cccnc3)C2=O)cc1,0.25 µM
9,COc1ccc(C(=O)Nc2ccccc2C(=O)NCc2ccco2)cc1OC,> 80 µM (inactive)
10,Cc1cc(C)cc(OCc2nnc(SCC(=O)c3ccccc3)o2)c1,> 80 µM (inactive)
11,O=C(N/N=C/c1cccnc1)c1cc(-c2ccccc2OCc2ccccc2)n[nH]1,6.82 µM
12,Cn1c(=O)cc(SCC(=O)N2CCCC2)c2cc(Cl)ccc21,> 80 µM (inactive)
13,COc1ccc(/C=C2\SC(=S)N(CCC(=O)Nc3ccc(C(=O)O)cc3)C2=O)cc1OC,> 80 µM (inactive)
14,Cc1ccc(/C=C2\SC(=S)N(CCCC(=O)Nc3cc(C)on3)C2=O)cc1,34.3 µM (inactive)
15,CCN(CC(=O)Nc1c(F)cccc1F)C(=O)c1cc(S(=O)(=O)N(C)C)ccc1N1CCCC1,12.2 µM
16,CCCCn1c2c(c(=N)c3ccccc31)CCC2,> 80 µM (inactive)
17,C(=N\Nc1nc(Nc2ccccc2)nc(Nc2ccccc2)n1)/c1cccnc1,> 80 µM (inactive)
18,CCOc1ccc(-c2nc(CSCC(=O)NC3CC3)c(C)o2)cc1,0.28 µM
19,O=C1NC[C@H](c2ccccc2)OC(=O)[C@@H](Cc2ccc(F)cc2)C/C=C\C[C@H]1CC(=O)N(CCO)Cc1ccccc1,9.87 µM
20,Cc1ccc(Nc2nc(N/N=C\c3ccc4c(c3)OCO4)nc(N3CCOCC3)n2)cc1,3.11 µM
21,COc1ccc(N(CC(=O)N2CCN(c3ccc(Cl)cc3)CC2)S(=O)(=O)c2c(C)n[nH]c2C)cc1,> 80 µM (inactive)
22,CC1(c2nnc(-c3cccc(Cl)c3)o2)CC(c2cccc(Cl)c2)=NO1 (configuration not stated),> 80 µM (inactive)
